# What was measured:
# CDK2 = biological target: T1, CDK2 (Homo sapiens, UniProt P24941); test: CDK protein degradation activity (Western blotting), CDK2; format: cell-based; settings: MDA-MB-231 cells, 16 hours, Western blot
# T1 construct: endogenous in cells; host or cells: MDA-MB-231
# How it was run: (§1)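 CDK2 and CDK9 protein levels measured by Western blot with densitometry, using tubulin as loading reference. Cells were MDA-MB-231, exposed for 16 h to 100 nM, 1 μM or 10 μM compound or to DMSO.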
# CDK9 = biological target: T2, CDK9 (Homo sapiens, UniProt P50750); test: CDK protein degradation activity (Western blotting), CDK9; format: cell-based; settings: MDA-MB-231 cells, 16 hours, Western blot
# T2 construct: endogenous in cells; host or cells: MDA-MB-231
# How it was run: as §1
# T2 sequence (P50750 whole entry): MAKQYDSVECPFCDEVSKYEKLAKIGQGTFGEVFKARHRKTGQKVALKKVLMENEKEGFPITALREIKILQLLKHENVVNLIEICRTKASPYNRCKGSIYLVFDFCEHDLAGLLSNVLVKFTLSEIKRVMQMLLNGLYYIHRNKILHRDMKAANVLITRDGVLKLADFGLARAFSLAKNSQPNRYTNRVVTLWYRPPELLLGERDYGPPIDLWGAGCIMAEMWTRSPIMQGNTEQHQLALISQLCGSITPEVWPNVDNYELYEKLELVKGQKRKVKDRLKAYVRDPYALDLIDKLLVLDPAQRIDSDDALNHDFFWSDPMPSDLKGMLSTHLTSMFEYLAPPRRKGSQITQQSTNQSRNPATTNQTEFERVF
smiles,measurement,setting,value
"Cc1cccc(C(=O)NC2CC(n3cnc4c(NCCCN5CCN(CC6CCN(C(=O)CNc7cccc8c7C(=O)N([C@@H]7CCC(=O)NC7=O)C8=O)CC6)CC5)ncnc43)C2)n1 (stereo partly drawn) [Compound 143, N-((1r,3r)-3-(6-((3-(4-((1-((2-(2,6-dioxopiperidin-3-yl)-1,3-dioxoisoindolin-4-yl)glycyl)piperidin-4-yl)methyl)piperazin-1-yl)propyl)amino)-9H-purin-9-yl)cyclobutyl)-6-methylpicolinamide]",Enzyme degradation CDK2 (% remaining) @ 0.1 μM,CDK2,80%
same,Enzyme degradation CDK2 (% remaining) @ 1 μM,CDK2,50%
same,Enzyme degradation CDK2 (% remaining) @ 10 μM,CDK2,100%
same,Enzyme degradation CDK9 (% remaining) @ 0.1 μM,CDK9,0/0/0%
same,Enzyme degradation CDK9 (% remaining) @ 1 μM,CDK9,0/0/0%
same,Enzyme degradation CDK9 (% remaining) @ 10 μM,CDK9,0/0/0%
"Cc1cccc(C(=O)NC2CC(n3cnc4c(NCCCN5CCN(CC6CCN(C(=O)COc7ccc8c(c7)C(=O)N([C@@H]7CCC(=O)NC7=O)C8=O)CC6)CC5)ncnc43)C2)n1 (stereo partly drawn) [Compound 144, N-((1r,3r)-3-(6-((3-(4-((1-(2-((2-(2,6-dioxopiperidin-3-yl)-1,3-dioxoisoindolin-5-yl)oxy)acetyl)piperidin-4-yl)methyl)piperazin-1-yl)propyl)amino)-9H-purin-9-yl)cyclobutyl)-6-methylpicolinamide]",Enzyme degradation CDK2 (% remaining) @ 0.1 μM,CDK2,100%
same,Enzyme degradation CDK2 (% remaining) @ 1 μM,CDK2,70%
same,Enzyme degradation CDK2 (% remaining) @ 10 μM,CDK2,70%
same,Enzyme degradation CDK9 (% remaining) @ 0.1 μM,CDK9,80%
same,Enzyme degradation CDK9 (% remaining) @ 1 μM,CDK9,10%
same,Enzyme degradation CDK9 (% remaining) @ 10 μM,CDK9,0%
"Cc1cccc(C(=O)NC2CC(n3cnc4c(NCCCN5CCN(CC6CCN(C(=O)CNc7ccc8c(c7)C(=O)N([C@@H]7CCC(=O)NC7=O)C8=O)CC6)CC5)ncnc43)C2)n1 (stereo partly drawn) [Compound 145, N-((1r,3r)-3-(6-((3-(4-((1-((2-(2,6-dioxopiperidin-3-yl)-1,3-dioxoisoindolin-5-yl)glycyl)piperidin-4-yl)methyl)piperazin-1-yl)propyl)amino)-9H-purin-9-yl)cyclobutyl)-6-methylpicolinamide]",Enzyme degradation CDK2 (% remaining) @ 0.1 μM,CDK2,30%
same,Enzyme degradation CDK2 (% remaining) @ 1 μM,CDK2,50%
same,Enzyme degradation CDK2 (% remaining) @ 10 μM,CDK2,50%
same,Enzyme degradation CDK9 (% remaining) @ 0.1 μM,CDK9,0/0/0%
same,Enzyme degradation CDK9 (% remaining) @ 1 μM,CDK9,0/0/0%
same,Enzyme degradation CDK9 (% remaining) @ 10 μM,CDK9,0/0/0%
"Cc1cccc(C(=O)NC2CC(n3cnc4c(NCc5ccc(N6CCN(C(=O)CNc7cccc8c7C(=O)N([C@H]7CCC(=O)NC7=O)C8=O)CC6)cc5)ncnc43)C2)n1 (stereo partly drawn) [Compound 148, N-((1s,3s)-3-(6-((4-(4-((2-(2,6-dioxopiperidin-3-yl)-1,3-dioxoisoindolin-4-yl)glycyl)piperazin-1-yl)benzyl)amino)-9H-purin-9-yl)cyclobutyl)-6-methylpicolinamide]",Enzyme degradation CDK2 (% remaining) @ 0.1 μM,CDK2,40%
same,Enzyme degradation CDK2 (% remaining) @ 1 μM,CDK2,50%
same,Enzyme degradation CDK2 (% remaining) @ 10 μM,CDK2,60%
same,Enzyme degradation CDK9 (% remaining) @ 0.1 μM,CDK9,10%
same,Enzyme degradation CDK9 (% remaining) @ 1 μM,CDK9,0%
same,Enzyme degradation CDK9 (% remaining) @ 10 μM,CDK9,0%
"Cc1cccc(C(=O)N[C@H]2C[C@@H](n3cnc4c(NCc5ccc(N6CCN(C(=O)CNc7ccc8c(c7)C(=O)N([C@H]7CCC(=O)NC7=O)C8=O)CC6)cc5)ncnc43)C2)n1 [Compound 149, N-((1s,3s)-3-(6-((4-(4-((2-(2,6-dioxopiperidin-3-yl)-1,3-dioxoisoindolin-5-yl)glycyl)piperazin-1-yl)benzyl)amino)-9H-purin-9-yl)cyclobutyl)-6-methylpicolinamide]",Enzyme degradation CDK2 (% remaining) @ 0.1 μM,CDK2,10%
same,Enzyme degradation CDK2 (% remaining) @ 1 μM,CDK2,20%
same,Enzyme degradation CDK2 (% remaining) @ 10 μM,CDK2,20%
same,Enzyme degradation CDK9 (% remaining) @ 0.1 μM,CDK9,0/0/0%
same,Enzyme degradation CDK9 (% remaining) @ 1 μM,CDK9,0/0/0%
same,Enzyme degradation CDK9 (% remaining) @ 10 μM,CDK9,0/0/0%
"Cc1cccc(C(=O)NC2CC(n3cnc4c(NCc5ccc(N6CCN(CC7CCN(c8cccc9c8C(=O)N([C@H]8CCC(=O)NC8=O)C9=O)CC7)CC6)cc5)ncnc43)C2)n1 (stereo partly drawn) [Compound 150, N-((1s,3s)-3-(6-((4-(4-((1-(2-(2,6-dioxopiperidin-3-yl)-1,3-dioxoisoindolin-4-yl)piperidin-4-yl)methyl)piperazin-1-yl)benzyl)amino)-9H-purin-9-yl)cyclobutyl)-6-methylpicolinamide]",Enzyme degradation CDK2 (% remaining) @ 0.1 μM,CDK2,70%
same,Enzyme degradation CDK2 (% remaining) @ 1 μM,CDK2,80%
same,Enzyme degradation CDK2 (% remaining) @ 10 μM,CDK2,80%
same,Enzyme degradation CDK9 (% remaining) @ 0.1 μM,CDK9,20%
same,Enzyme degradation CDK9 (% remaining) @ 1 μM,CDK9,10%
same,Enzyme degradation CDK9 (% remaining) @ 10 μM,CDK9,0%
"Cc1cccc(C(=O)N[C@H]2C[C@@H](n3cnc4c(NCc5ccc(N6CCN(CC7CCN(c8ccc9c(c8)C(=O)N([C@H]8CCC(=O)NC8=O)C9=O)CC7)CC6)cc5)ncnc43)C2)n1 [Compound 151, N-((1s,3s)-3-(6-((4-(4-((1-(2-(2,6-dioxopiperidin-3-yl)-1,3-dioxoisoindolin-5-yl)piperidin-4-yl)methyl)piperazin-1-yl)benzyl)amino)-9H-purin-9-yl)cyclobutyl)-6-methylpicolinamide]",Enzyme degradation CDK2 (% remaining) @ 0.1 μM,CDK2,30%
same,Enzyme degradation CDK2 (% remaining) @ 1 μM,CDK2,10%
same,Enzyme degradation CDK2 (% remaining) @ 10 μM,CDK2,10%
same,Enzyme degradation CDK9 (% remaining) @ 0.1 μM,CDK9,0/0/0%
same,Enzyme degradation CDK9 (% remaining) @ 1 μM,CDK9,0/0/0%
same,Enzyme degradation CDK9 (% remaining) @ 10 μM,CDK9,0/0/0%
"Cc1cccc(C(=O)NC2CC(n3cnc4c(NCc5ccc(N6CCN(CC7CCN(C(=O)CNc8cccc9c8C(=O)N([C@H]8CCC(=O)NC8=O)C9=O)CC7)CC6)cc5)ncnc43)C2)n1 (stereo partly drawn) [Compound 152, N-((1s,3s)-3-(6-((4-(4-((1-((2-(2,6-dioxopiperidin-3-yl)-1,3-dioxoisoindolin-4-yl)glycyl)piperidin-4-yl)methyl)piperazin-1-yl)benzyl)amino)-9H-purin-9-yl)cyclobutyl)-6-methylpicolinamide]",Enzyme degradation CDK2 (% remaining) @ 0.1 μM,CDK2,10/10/10%
same,Enzyme degradation CDK2 (% remaining) @ 1 μM,CDK2,10/10/10%
same,Enzyme degradation CDK2 (% remaining) @ 10 μM,CDK2,10/10/10%
same,Enzyme degradation CDK9 (% remaining) @ 0.1 μM,CDK9,0/0/0%
same,Enzyme degradation CDK9 (% remaining) @ 1 μM,CDK9,0/0/0%
same,Enzyme degradation CDK9 (% remaining) @ 10 μM,CDK9,0/0/0%
"Cc1cccc(C(=O)NC2CC(n3cnc4c(NCc5ccc(N6CCN(CC7CCN(C(=O)CNc8ccc9c(c8)C(=O)N([C@H]8CCC(=O)NC8=O)C9=O)CC7)CC6)cc5)ncnc43)C2)n1 (stereo partly drawn) [Compound 153, N-((1s,3s)-3-(6-((4-(4-((1-((2-(2,6-dioxopiperidin-3-yl)-1,3-dioxoisoindolin-5-yl)glycyl)piperidin-4-yl)methyl)piperazin-1-yl)benzyl)amino)-9H-purin-9-yl)cyclobutyl)-6-methylpicolinamide]",Enzyme degradation CDK2 (% remaining) @ 0.1 μM,CDK2,10/10/10%
same,Enzyme degradation CDK2 (% remaining) @ 1 μM,CDK2,10/10/10%
same,Enzyme degradation CDK2 (% remaining) @ 10 μM,CDK2,10/10/10%
same,Enzyme degradation CDK9 (% remaining) @ 0.1 μM,CDK9,0/0/0%
same,Enzyme degradation CDK9 (% remaining) @ 1 μM,CDK9,0/0/0%
same,Enzyme degradation CDK9 (% remaining) @ 10 μM,CDK9,0/0/0%
"CC(=O)N[C@H]1C[C@@H](n2cnc3c(NCC4CCN(CC5CCN(C(=O)COc6ccc7c(c6)C(=O)N([C@H]6CCC(=O)NC6=O)C7=O)CC5)CC4)ncnc32)C1 [Compound 154, N-((1s,3s)-3-(6-(((1-((1-(2-((2-(2,6-dioxopiperidin-3-yl)-1,3-dioxoisoindolin-5-yl)oxy)acetyl)piperidin-4-yl)methyl)piperidin-4-yl)methyl)amino)-9H-purin-9-yl)cyclobutyl)acetamide]",Enzyme degradation CDK2 (% remaining) @ 0.1 μM,CDK2,100%
same,Enzyme degradation CDK2 (% remaining) @ 1 μM,CDK2,70%
same,Enzyme degradation CDK2 (% remaining) @ 10 μM,CDK2,70%
same,Enzyme degradation CDK9 (% remaining) @ 0.1 μM,CDK9,90%
same,Enzyme degradation CDK9 (% remaining) @ 1 μM,CDK9,70%
same,Enzyme degradation CDK9 (% remaining) @ 10 μM,CDK9,30%
"CC(=O)NC1CC(n2cnc3c(NCC4CCN(CC5CCN(C(=O)COc6cccc7c6C(=O)N([C@H]6CCC(=O)NC6=O)C7=O)CC5)CC4)ncnc32)C1 (stereo partly drawn) [Compound 155, N-((1s,3s)-3-(6-(((1-((1-(2-((2-(2,6-dioxopiperidin-3-yl)-1,3-dioxoisoindolin-4-yl)oxy)acetyl)piperidin-4-yl)methyl)piperidin-4-yl)methyl)amino)-9H-purin-9-yl)cyclobutyl)acetamide]",Enzyme degradation CDK2 (% remaining) @ 0.1 μM,CDK2,100%
same,Enzyme degradation CDK2 (% remaining) @ 1 μM,CDK2,80%
same,Enzyme degradation CDK2 (% remaining) @ 10 μM,CDK2,10%
same,Enzyme degradation CDK9 (% remaining) @ 0.1 μM,CDK9,90%
same,Enzyme degradation CDK9 (% remaining) @ 1 μM,CDK9,40%
same,Enzyme degradation CDK9 (% remaining) @ 10 μM,CDK9,0%
"CC(=O)N[C@H]1C[C@@H](n2cnc3c(NCC4CCN(CC5CCN(C(=O)CNc6ccc7c(c6)C(=O)N([C@H]6CCC(=O)NC6=O)C7=O)CC5)CC4)ncnc32)C1 [Compound 156, N-((1s,3s)-3-(6-(((1-((1-((2-(2,6-dioxopiperidin-3-yl)-1,3-dioxoisoindolin-5-yl)glycyl)piperidin-4-yl)methyl)piperidin-4-yl)methyl)amino)-9H-purin-9-yl)cyclobutyl)acetamide]",Enzyme degradation CDK2 (% remaining) @ 0.1 μM,CDK2,100%
same,Enzyme degradation CDK2 (% remaining) @ 1 μM,CDK2,80%
same,Enzyme degradation CDK2 (% remaining) @ 10 μM,CDK2,70%
same,Enzyme degradation CDK9 (% remaining) @ 0.1 μM,CDK9,80%
same,Enzyme degradation CDK9 (% remaining) @ 1 μM,CDK9,50%
same,Enzyme degradation CDK9 (% remaining) @ 10 μM,CDK9,40%
"CC(=O)NC1CC(n2cnc3c(NCC4CCN(CC5CCN(c6cccc7c6C(=O)N([C@H]6CCC(=O)NC6=O)C7=O)CC5)CC4)ncnc32)C1 (stereo partly drawn) [Compound 159, N-((1s,3s)-3-(6-(((1-((1-(2-(2,6-dioxopiperidin-3-yl)-1,3-dioxoisoindolin-4-yl)piperidin-4-yl)methyl)piperidin-4-yl)methyl)amino)-9H-purin-9-yl)cyclobutyl)acetamide]",Enzyme degradation CDK2 (% remaining) @ 0.1 μM,CDK2,100%
same,Enzyme degradation CDK2 (% remaining) @ 1 μM,CDK2,80%
same,Enzyme degradation CDK2 (% remaining) @ 10 μM,CDK2,50%
same,Enzyme degradation CDK9 (% remaining) @ 0.1 μM,CDK9,90%
same,Enzyme degradation CDK9 (% remaining) @ 1 μM,CDK9,70%
same,Enzyme degradation CDK9 (% remaining) @ 10 μM,CDK9,30%

# From patent publication US20260125382A1, “COMPOUNDS FOR INHIBITING OR DEGRADING CDK2 AND/OR CDK9 AND MEDICINAL USE THEREOF” (KOREA RESEARCH INSTITUTE OF CHEMICAL TECHNOLOGY, priority 2022, published 2026)
